Measured values: patent US20110034427A1, “Anti-aging properties of quercetin, 18alpha-glycyrrhetinic acid and hederagenin and their derivatives” (priority 2009, published 2011)
Entries after “also recorded” stand apart in the source; their conditions may differ.

Key:
[1] = tested on: HFL-1 human diploid fibroblasts; assay: Lifespan (cumulative population doublings) and morphology of human diploid fibroblasts under continuous treatment; type: cell-based; conditions: for appearance of the senescent phenotype (conclusion): continuous treatment, morphology, shape, β-galactosidase positive cells
Experimental: 1.1. HFL-1 human diploid fibroblasts (HDFs) were used in in vitro conditions (growth at 37° C., 5% CO2 and 95% humidity).
1.2. The cells were maintained in Dulbecco's modified Eagle's medium (DMEM®; Invitrogen Life Technologies Inc.) supplemented with 10% (v/v) fetal calf serum, 100 Units/ma penicillin, 100 μg/ml strepromycin, 2 mM glutamine and 1% (v/v) non-essential amino acids (complete medium).
1.3. The cells were constantly cultured in culture medium supplemented with the substances [final concentration for quercetin (QUER), 18α-glycyrrhetinic acid (18α GA), and hederagenin (HED): 2 μg/ml and for quercetin caprylate (QU-CAP) three concentrations were applied: 0.5, 2 and 5 μg/ml]. Quercetin, 18α-glycyrrhetinic acid and hederagenin were diluted in DMSO (dimethyl sulfoxide) whereas quercetin caprylate was diluted in caprilic/capric triglycerides (CAP). Therefore, the control cultures were incubated in medium supplemented with 0.1% DMSO or 0.1% CAP.
1.4. The cells were replenished with fresh media supplemented with the substances or the diluents every 24 h and their numbers were examined using a Coulter Z2® counter (Coulter Corporation) until they reached senescence (approximately after 13 weeks). The cumulative population doublings performed by each culture were calculated using the following formula: CPD=Σ[PD] where PD=LOG [Nfinal/Ninitial]/LOG [2], where N final represents the number of cells that were measured when each culture reached confluence and N initial represents the number of cells that was initially seeded.
1.5. Photographs of the cells maintained in cell culture and treated with the various substances for the same time period were taken.
1.6. […] More specifically, cells that were incubated with quercetin caprylate gave up to 2.8% more population doublings as compared to the population doublings performed by the relative control cultures. Cells that were incubated with the other substances gave up to 2.9% more population doublings as compared to their relative control cultures.
1.7. […] Cells that were treated with either of the tested substances maintained the young morphology for longer as compared to the control cultures (DMSO-treated and CAP-treated).

[2] = tested on: middle aged and terminally senescent HFL-1 HDFs; assay: Reversal of senescent phenotype in middle aged and terminally senescent cells; type: cell-based, human; conditions: for proliferation of middle aged cells (FIG. 3A): middle aged HFL-1 (cpd 59), QUER, 18α GA 2 μg/ml, QU-CAP 0.5, 2 and 5 μg/ml; for proliferation of middle aged cells (FIG. 3A) / proliferation of terminally senescent cells (FIG. 3B): 1 week; for morphology of middle aged cells (FIG. 4A) / β-galactosidase activity staining of middle aged cells (FIG. 4A): middle aged HFL-1, 1 week; for β-galactosidase activity staining of middle aged cells (FIG. 4A): QU-CAP all three concentrations; for reversal of the senescent phenotype / rejuvenation effect (conclusion): middle aged cells or terminally senescent cells; for proliferation of terminally senescent cells (FIG. 3B): terminally senescent HFL-1 (cpd 65), QUER 2 μg/ml, QU-CAP 2 and 5 μg/ml; for morphology of terminally senescent cells (FIG. 4B) / β-galactosidase activity of terminally senescent cells (FIG. 4B): terminally senescent HFL-1, 1 week, QU-CAP higher concentrations
Experimental: 3.1. HFL-1 HDFs that have senesced in vitro were used (growth at 37° C., 5% CO2 and 95% humidity). More specifically, middle aged HFL-1 HDFs (cpd 59) and terminally senescent HFL-1 HDFs (cpd 65) that had senesced in the absence of any substance were used.
3.2. The cells were seeded and maintained in complete medium (see 1.2). Culture medium supplemented with the substances [final concentration for quercetin (QUER), 18α-glycyrrhetinic acid (18α GA), and hederagenin (HED): 2 μg/ml and for quercetin caprylate (QU-CAP) three concentrations were applied: 0.5, 2 and 5 μg/ml] or the diluents (0.1% DMSO or 0.1% CAP) were added 24 h later. The cells were replenished with fresh media supplemented with the substances or the diluents every 24 h for 1 week and their numbers were then examined using a Coulter Z2® counter (Coulter Corporation).
3.3. Detection of β-galactosidase activity was performed in these cells as described above and photographs of the cells following β-galactosidase activity assay were taken.

HFL-1 HDFs [3] = assay: Levels of oxidized proteins (OxyBlot analysis); type: cell-based, human; conditions: HFL-1, 24 h treatment; vs control
Experimental: 4.1. HFL-1 HDFs were cultured as described in 1.1-1.4. Cells treated with the substances for 24 h and were then lysed and proteins were extracted and subjected to SDS-PAGE (sodium dodecylsulfate polyacrylamide gel electrophorese) followed by OxyBlot analysis that detects the carbonylated groups on proteins. OxyBlot™ is a protein oxidation detection kit.
4.2. […] However it is worth mentioning that OxyBlot analysis detects only carbonylated groups on proteins which is just one oxidative stress-mediated post-translational protein modification.

HFL-1 HDFs [4] = assay: Cellular survival with or without oxidative stress; type: cell-based, human; conditions: for survival to an oxidative stress challenge (conclusion): vs control cells
Experimental: 6.1. HFL-1 HDFs were cultured as described in 5.1. Following the incubation with the various substances cells were collected and counted using a Coulter Z2® counter (Coulter Corporation). In replica cultures, culture medium supplemented with the substances as described above were also supplemented with 300 μM H2O2 for 2.5 h. The cells were then thoroughly washed with PBS, supplemented with complete medium containing the examined substances and maintained in culture for additional 24 h. They were then collected and counted using a Coulter Z2® counter (Coulter Corporation).

[5] = tested on: proteasome subunits (β5, α7); assay: Levels of proteasome subunits (immunoblot); type: cell-based, human; conditions: HFL-1, 24 h treatment
Experimental: 8.1. HFL-1 HDFs were cultured as described in 5.1. Following the incubation with the various substances for 24 h, cells were collected, lysed and proteins were extracted and subjected to SDS-PAGE followed by immunoblot analysis against different proteasome subunits. Protein concentrations were determined using the Bradford method with BSA as a standard.
8.2. […] In total, the increased amount of proteasome subunits expression levels provide an explanation regarding the increased proteasome activities recorded in these cells.

[6] = tested on: Mouse melanocytes (B10F16 cell line); assay: Cellular whitening of melanocytes (cell pellet); type: cell-based; conditions: for whitening of melanocytes (conclusion): concentration not given; for whitening of melanocyte pellet (FIG. 10): 72 h
Experimental: A.1. Mouse melanocytes (B10F16 cell line) were used in in vitro conditions (growth at 37° C., 5% CO2 and 95% humidity).
A.2. The cells were maintained in Dulbecco's modified Eagle's medium (DMEM®; Invitrogen Life Technologies Inc.) supplemented with 10% (v/v) fetal calf serum, 100 Units/ma penicillin, 100 μg/ml strepromycin, 2 mM glutamine and 1% (v/v) non-essential amino acids (complete medium).
A.3. 10^5 cells were seeded in petri dishes and the following day they were fed with medium supplemented with the substances [final concentration for all substances: 5 μg/ml and 10 μg/ml]. Quercetin (QUER), 18α-glycyrrhetinic acid (18α GA) and hederagenin (HED) were diluted in DMSO whereas quercetin caprylate was diluted in caprilic/capric triglycerides (CAP). Therefore, the control cultures were incubated in medium supplemented with 0.1% DMSO or 0.1% CAP. The media were replenished every 24 h and the cells were kept under these conditions constantly for 72 h. Cells were then collected and pelleted and the cell pellet was photographed.
A.4. […] The result was positively correlated to the concentration of quercetin used.

tyrosinase = assay: Tyrosinase expression (immunoblot); type: cell-based, mouse; conditions: for protein expression levels of tyrosinase (conclusion): concentration not given; for protein levels of tyrosinase (FIG. 11): mouse melanocytes, 72 h
Experimental: B.1. Mouse melanocytes were cultured as described in A.1.-A.3. After 72 h of treatment, the cells were collected, lysed and proteins were extracted and subjected to SDS-PAGE followed by immunoblot analysis against tyrosinase. Protein concentrations were determined using the Bradford method with BSA as a standard.

| Compound | appearance of the senescent phenotype (conclusion) [1] | proliferation of middle aged cells (FIG. 3A) [2] | morphology of middle aged cells (FIG. 4A) [2] | β-galactosidase activity staining of middle aged cells (FIG. 4A) [2] | reversal of the senescent phenotype / rejuvenation effect (conclusion) [2] | levels of oxidized (carbonylated) proteins (FIG. 5) (HFL-1 HDFs [3]) | higher survival rate after oxidative stress as compared to control cultures (HFL-1 HDFs [4]; 300 μM H2O2 for 2.5 h, then additional 24 h in culture) [%] | higher survival rate as compared to diluent-treated cells (HFL-1 HDFs [4]; 24 h treatment, without oxidative stress) [%] | survival to an oxidative stress challenge (conclusion) (HFL-1 HDFs [4]) | protein levels of proteasome subunits β5 and α7 (FIG. 9) [5] | whitening of melanocytes (conclusion) [6] | whitening of melanocyte pellet (FIG. 10) ([6]; lower concentration (5 μg/ml)) | protein expression levels of tyrosinase (conclusion) (tyrosinase) | protein levels of tyrosinase (FIG. 11) (tyrosinase; high concentration) | proliferation of terminally senescent cells (FIG. 3B) [2] | morphology of terminally senescent cells (FIG. 4B) [2] | β-galactosidase activity of terminally senescent cells (FIG. 4B) [2] | whitening of melanocyte pellet (FIG. 10) ([6]; both concentrations (5 and 10 μg/ml)) | protein levels of tyrosinase (FIG. 11) (tyrosinase; 5 and 10 μg/ml) | more population doublings as compared to the relative control cultures ([1]; HFL-1, continuous treatment about 13 weeks, QU-CAP 0.5, 2 and 5 μg/ml, others 2 μg/ml, vs 0.1% DMSO or 0.1% CAP) |
| --- | --- | --- | --- | --- | --- | --- | --- | --- | --- | --- | --- | --- | --- | --- | --- | --- | --- | --- | --- | --- |
| CC1(C)[C@@H](O)CC[C@]2(C)[C@H]3C(=O)C=C4[C@H]5C[C@@](C)(C(=O)O)CC[C@]5(C)CC[C@@]4(C)[C@]3(C)CC[C@@H]12 [18α-glycyrrhetinic acid] | delay in the appearance of the senescent phenotype | higher proliferation rates | acquired a morphology more similar to the one exhibited by young cells | less positive to β-galactosidase activity staining | regained a younger morphology and were induced to limited but significant proliferation | lower amounts of oxidized proteins; also recorded: slightly lower levels | 2 | 3.5 | survived better | similar | revealed whitening potential | revealed whitening potential | decrease of the protein expression levels of tyrosinase | – | – | – | – | – | – | – |
| CC1(C)CC[C@]2(C(=O)O)CC[C@]3(C)C(=CC[C@@H]4[C@@]5(C)CC[C@H](O)[C@@](C)(CO)[C@@H]5CC[C@]43C)[C@@H]2C1 [hederagenin, Hederagenin] | – | – | – | – | – | – | – | – | – | did not detect any up-regulation | revealed whitening potential | revealed whitening potential | decrease of the protein expression levels of tyrosinase | reduced protein levels of tyrosinase | – | – | – | – | – | – |
| O=c1c(O)c(-c2ccc(O)c(O)c2)oc2cc(O)cc(O)c12 [quercetin, Quercetin] | delay in the appearance of the senescent phenotype | higher proliferation rates | acquired a morphology more similar to the one exhibited by young cells | less positive to β-galactosidase activity staining | regained a younger morphology and were induced to limited but significant proliferation | – | – | – | survived better | elevated protein levels | revealed whitening potential | – | decrease of the protein expression levels of tyrosinase | – | limited but significant cell proliferation | acquired a morphology that exhibits more similarities with the morphology of young fibroblasts | many of those cells were negative for β-galactosidase activity | revealed whitening potential | reduced protein levels of tyrosinase | – |
| Quercetin caprylate | delay in the appearance of the senescent phenotype | higher proliferation rates | acquired a morphology more similar to the one exhibited by young cells | less positive to β-galactosidase activity staining | regained a younger morphology and were induced to limited but significant proliferation | lower amounts of oxidized proteins; also recorded: less oxidized proteins | – | – | survived better | elevated protein levels | – | – | – | – | limited but significant cell proliferation | acquired a morphology that exhibits more similarities with the morphology of young fibroblasts | many of those cells were negative for β-galactosidase activity | – | reduced protein levels of tyrosinase | up to 2.8% |
